{"source": "patent US10428140B2", "about": "“Anti-EphA4 antibody” (EISAI R&D MANAGEMENT CO., LTD., priority 2015, dated 2019)", "target": "T1, mouse EphA4 (binding to mouse Ephrin A1) (Mus musculus, UniProt Q03137)", "T1 construct": "made in house; host or cells: HEK293EBNA cells", "T1 sequence (Q03137 with tags, fused parts or gaps)": "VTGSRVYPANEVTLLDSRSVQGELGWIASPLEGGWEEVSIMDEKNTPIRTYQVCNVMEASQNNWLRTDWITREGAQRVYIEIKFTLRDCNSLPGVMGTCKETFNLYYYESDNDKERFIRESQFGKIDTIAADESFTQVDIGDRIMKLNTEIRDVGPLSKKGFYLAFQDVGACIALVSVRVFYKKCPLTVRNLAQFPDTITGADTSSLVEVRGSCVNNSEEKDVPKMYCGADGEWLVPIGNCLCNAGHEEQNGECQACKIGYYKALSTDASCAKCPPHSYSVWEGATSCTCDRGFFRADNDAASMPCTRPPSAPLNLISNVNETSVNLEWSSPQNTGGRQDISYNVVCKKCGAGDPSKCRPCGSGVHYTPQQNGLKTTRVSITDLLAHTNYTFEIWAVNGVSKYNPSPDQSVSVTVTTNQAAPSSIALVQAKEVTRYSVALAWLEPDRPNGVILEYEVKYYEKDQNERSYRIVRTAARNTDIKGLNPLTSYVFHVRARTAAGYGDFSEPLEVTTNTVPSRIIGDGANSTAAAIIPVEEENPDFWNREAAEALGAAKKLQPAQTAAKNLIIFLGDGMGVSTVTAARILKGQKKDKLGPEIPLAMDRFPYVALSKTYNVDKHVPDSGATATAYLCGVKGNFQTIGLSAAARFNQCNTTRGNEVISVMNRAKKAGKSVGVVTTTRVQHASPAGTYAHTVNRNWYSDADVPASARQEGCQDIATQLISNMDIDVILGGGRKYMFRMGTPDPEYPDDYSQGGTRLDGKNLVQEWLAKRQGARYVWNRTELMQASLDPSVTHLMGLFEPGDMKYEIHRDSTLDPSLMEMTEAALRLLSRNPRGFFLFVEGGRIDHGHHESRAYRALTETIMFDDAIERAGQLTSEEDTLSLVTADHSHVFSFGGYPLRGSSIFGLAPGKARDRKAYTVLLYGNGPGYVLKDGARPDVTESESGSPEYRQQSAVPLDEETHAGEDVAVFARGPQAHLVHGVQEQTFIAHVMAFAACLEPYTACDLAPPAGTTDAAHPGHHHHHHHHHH", "assay": "Mouse EphA4-mouse ligand binding inhibition ELISA (Ephrin A1-Fc)", "conditions": "mouse Ephrin A1 and Ephrin B2; 0.03-1000 μM", "experimental": "Antibody A obtained in Example 1 was evaluated for its inhibitory activity against the binding between mouse EphA4 and its mouse ligand according to the following steps. Each well of a 96-well plate (Nunc) was coated with an anti-alkaline phosphatase antibody (Thermo Fisher Scientific). After incubation overnight at 4° C., each well was blocked with 1% BlockAce (DS Pharma Biomedical) at room temperature for 1 hour. After washing with 0.05% Tween 20/PBS (Thermo Fisher Scientific) three times, the mouse EphA4 extracellular region-SEAP-His protein obtained by the method of Example 1 was added (final concentration: 10 nM) to each well and incubated at room temperature for 1 hour. After washing three times, ligands and serially diluted antibody A (0, 0.001, 0.003, 0.01, 0.03, 0.1, 0.3, 1,3, 10, 30, 100, 300, and 1000 nM) or a known EphA4 inhibitor KYL peptide (KYLPYWPVLSSL, 0, 0.003, 0.01, 0.03, 0.1, 0.3, 1, 3, 10, 30, and 100 μM, its synthesis was outsourced to Hokkaido System Science) or compound 1 (0, 0.03, 0.1, 0.3, 1,3, 10, 30, 100, 300, and 1000 μM, Formula 1, Matrix Scientific) were added to each well. The ligands used were mouse Ephrin A1-Fc chimera (R&D Systems, final concentration: 20 nM) and mouse Ephrin B2-Fc chimera (R&D Systems, final concentration: 0.6 nM). […] The absorbance at 450 nm was read using a microplate reader (Molecular Devices)."}
{"smiles": "Cc1ccc(C)n1-c1ccc(C(=O)O)c(O)c1", "note": "[Compound 1, reference compound]", "values": [{"measurement": "inhibition of binding between mouse EphA4 and mouse ligand (in words)", "value": "weaker activity, and no concentration dependence was found"}]}
